Our source for the T/C values is PubChem BioAssay AID330 (DTP/NCI, 2004).

“And” between values parts separate entries of the source, which are not always exact repeats. Equal entries are not always repeated. Inconclusive results and toxic doses are left out.

This experiment concerns P388 leukemia ip, CD2F1 mice, survival T/C. Nature of the experiment: NCI In Vivo Anticancer Drug Screen. Data for tumor model P388 Leukemia (intraperitoneal) in CD2F1 (CDF1) mice. The conditions noted are these: endpoint: median survival time, higher = longer survival. In outline: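 Mice carrying the transplanted tumor received test compound or vehicle. Survival was recorded in each group, and the value is the treated-group measurement divided by that of the vehicle-treated control group.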

Setting [1] is: dose: 60.0 mg/kg/injection, schedule: Q01DX005 (ip), vehicle: saline with Tween-80.
Where [2] appears, read: dose: 120.0 mg/kg/injection, schedule: Q01DX005 (ip), vehicle: saline with Tween-80.
The mark [3] stands for this setting: dose: 240.0 mg/kg/injection, schedule: Q01DX005 (ip), vehicle: saline with Tween-80.
Where [4] appears, read: dose: 50.0 mg/kg/injection, schedule: Q01DX005 (ip), vehicle: Klucel (hydroxypropylcellulose) (HPC).
[5] abbreviates: dose: 100.0 mg/kg/injection, schedule: Q01DX005 (ip), vehicle: Klucel (hydroxypropylcellulose) (HPC).
Where [6] appears, read: dose: 200.0 mg/kg/injection, schedule: Q01DX005 (ip), vehicle: Klucel (hydroxypropylcellulose) (HPC).
The mark [7] stands for this setting: dose: 50.0 mg/kg/injection, schedule: Q01DX005 (ip), vehicle: saline with Tween-80.
The mark [8] stands for this setting: dose: 100.0 mg/kg/injection, schedule: Q01DX005 (ip), vehicle: saline with Tween-80.
[9] abbreviates: dose: 200.0 mg/kg/injection, schedule: Q01DX005 (ip), vehicle: saline with Tween-80.
[10] abbreviates: dose: 12.5 mg/kg/injection, schedule: Q01DX009 (ip), vehicle: saline.
The mark [11] stands for this setting: dose: 25.0 mg/kg/injection, schedule: Q01DX009 (ip), vehicle: saline.
Setting [12] is: dose: 50.0 mg/kg/injection, schedule: Q01DX009 (ip), vehicle: saline.
Setting [13] is: dose: 50.0 mg/kg/injection, schedule: Q01DX009 (ip), vehicle: saline with Tween-80.
Setting [14] is: dose: 100.0 mg/kg/injection, schedule: Q01DX009 (ip), vehicle: saline with Tween-80.
The mark [15] stands for this setting: dose: 2.5 mg/kg/injection, schedule: Q01DX009 (ip), vehicle: saline with Tween-80.

In the case of `CC1(C)OCC(C2OC3OC(C)(C)OC3C2=C(Br)Br)O1` (stereo not drawn), the T/C was 91 % of control under setting [1], 100 % of control under setting [2] and 89 % of control under setting [3].
`O=c1[nH]c(=S)[nH]c2c1CN(CCCN1CCN(CCCN3CNc4[nH]c(=S)[nH]c(=O)c4C3)CC1)CN2`: the T/C runs as follows: under setting [4], 96 % of control; under setting [5], 94 % of control; under setting [6], 95 % of control.
Consider `Oc1c2c(c3cccc4cccc1c43)=Nc1ccccc1S2`, for which the T/C under setting [7] was 95 % of control, the T/C under setting [8] is 94 % of control and the T/C under setting [9] is 90 % of control.
Consider `c1cc[c]([Ge]([c]2ccccc2)[c]2ccccc2)cc1`, for which the T/C is, setting by setting: under setting [1], 91 % of control; under setting [2], 100 % of control; under setting [3], 97 % of control.
Turning to `CC(=O)c1ccc2c(c1)N(CCCN1CCN(CCO)CC1)c1ccccc1S2`, the T/C (dose: 1.56 mg/kg/injection, schedule: Q01DX009 (ip), vehicle: saline) is 116 % of control; the T/C (dose: 3.12 mg/kg/injection, schedule: Q01DX009 (ip), vehicle: saline) is 103 % of control; the T/C (dose: 6.25 mg/kg/injection, schedule: Q01DX009 (ip), vehicle: saline) was 107 % of control; the T/C (dose: 6.25 mg/kg/injection, schedule: Q04DX003 (ip), vehicle: saline) is 91 % of control; the T/C under setting [10] is 108 % of control; the T/C (dose: 12.5 mg/kg/injection, schedule: Q04DX003 (ip), vehicle: saline) is 103 % of control. In addition, the T/C under setting [11] is 106 % of control; the T/C (dose: 25.0 mg/kg/injection, schedule: Q04DX003 (ip), vehicle: saline) was 107 % of control; the T/C under setting [12] was 109 % of control; the T/C (dose: 50.0 mg/kg/injection, schedule: Q04DX003 (ip), vehicle: saline) was 119 % of control.
For the molecule `COc1c(OC)c(C2(O)C(=O)N(C)c3ccccc32)c2c(c1C1(O)C(=O)N(C)c3ccccc31)OCO2` (stereo not drawn), the T/C runs as follows: under setting [1], 95 % of control; under setting [2], 90 % of control; under setting [3], 89 % of control.
Take `O=[N+]([O-])c1ccc(-c2nc(/C=N/N3CCSCC3)cs2)s1`: the T/C was 100 % of control (dose: 25.0 mg/kg/injection, schedule: Q01DX009 (ip), vehicle: saline with Tween-80); 95 % of control under setting [13]; 95 % of control under setting [14].
As to `CC1SC(c2ccc(Cl)cc2)N2C(=O)C(C)SC(c3ccc(Cl)cc3)N2C1=O` (stereo not drawn), the T/C is 87 % of control under setting [13] and 86 % of control under setting [14].
As for `N#Cc1c(NC(=O)C(Cl)(Cl)Cl)sc2c1CCCC2`, the T/C under setting [7] is 105 % of control, the T/C under setting [8] was 110 % of control and the T/C under setting [9] was 117 % of control.
Regarding `O=[N+]([O-])c1ccc(/C=N/N2CCNC2=S)o1`, the T/C is, setting by setting: (dose: 25.0 mg/kg/injection, schedule: Q01DX009 (ip), vehicle: Klucel (hydroxypropylcellulose) (HPC)) 100 % of control; (dose: 50.0 mg/kg/injection, schedule: Q01DX009 (ip), vehicle: Klucel (hydroxypropylcellulose) (HPC)) 101 % of control; (dose: 100.0 mg/kg/injection, schedule: Q01DX009 (ip), vehicle: Klucel (hydroxypropylcellulose) (HPC)) 100 % of control; (dose: 200.0 mg/kg/injection, schedule: Q01DX009 (ip), vehicle: Klucel (hydroxypropylcellulose) (HPC)) 100 % of control.
With `O=C1CSC(c2c(Cl)cccc2Cl)N1c1nncs1` (stereo not drawn), the T/C under setting [1] is 111 % of control, the T/C under setting [2] is 102 % of control and the T/C under setting [3] was 98 % of control.
Take `Cc1ccc(-n2c(CSc3ccc(Cl)cc3)nnc2SCc2nc3ccccc3[nH]2)cc1`: the T/C is, setting by setting: (dose: 15.0 mg/kg/injection, schedule: Q01DX005 (ip), vehicle: saline with Tween-80) 92 % of control; (dose: 30.0 mg/kg/injection, schedule: Q01DX005 (ip), vehicle: saline with Tween-80) 102 % of control; under setting [1], 96 % of control and 98 % of control.
Take `CCN(CC)CCCC(c1ccccc1)c1ccccc1`: the T/C runs as follows: (dose: 12.5 mg/kg/injection, schedule: Q01DX005 (ip), vehicle: saline with Tween-80) 99 % of control; (dose: 25.0 mg/kg/injection, schedule: Q01DX005 (ip), vehicle: saline with Tween-80) 94 % of control; under setting [7], 99 % of control and 110 % of control.
For the molecule `COc1cc2ccc1NC(=O)N1CCN(CC1)C(=O)Nc1ccc(cc1OC)-c1ccc(c(OC)c1)NC(=O)N1CCN(CC1)C(=O)Nc1ccc-2cc1OC`, the T/C reads like this: under setting [4], 101 % of control; under setting [5], 98 % of control; under setting [6], 102 % of control.
`CCC(=NCCCCCCN=C(CC)c1cc(C)cc([N+](=O)[O-])c1O)c1cc(C)cc([N+](=O)[O-])c1O.[Fe]`: the T/C was 90 % of control under setting [1], 86 % of control under setting [2] and 94 % of control under setting [3].
Consider `O=C(CN1CCOCC1)c1cc2c(c3ccccc13)CCCC2`, for which the T/C is, setting by setting: under setting [4], 94 % of control; under setting [5], 99 % of control; under setting [6], 96 % of control.
Turning to `CC[n+]1c(-c2ccccc2)c2cc(N)ccc2c2ccc(N)cc21` (tested in a mixture with another compound), the T/C is 102 % of control (dose: 5.0 mg/kg/injection, schedule: Q01DX005 (ip), vehicle: other); 112 % of control (dose: 10.0 mg/kg/injection, schedule: Q01DX005 (ip), vehicle: other); 102 % of control (dose: 20.0 mg/kg/injection, schedule: Q01DX005 (ip), vehicle: other); 109 % of control (dose: 40.0 mg/kg/injection, schedule: Q01DX005 (ip), vehicle: other); 119 % of control (dose: 80.0 mg/kg/injection, schedule: Q01DX005 (ip), vehicle: other).
With `C=[CH][Pb]([CH]=C)([CH]=C)[O]C(C)=O`, the T/C by setting is: (dose: 1.25 mg/kg/injection, schedule: Q01DX009 (ip), vehicle: saline with Tween-80) 110 % of control and 111 % of control; under setting [15], 160 % of control; (dose: 5.0 mg/kg/injection, schedule: Q01DX009 (ip), vehicle: saline with Tween-80) 151 % of control and 188 % of control.
For `CCOC(=O)Nc1c(CCO)n[nH]c1C`, the T/C reads like this: under setting [7], 108 % of control; under setting [8], 101 % of control; under setting [9], 97 % of control.
As to `N#COc1ccc(-c2ccccc2)cc1`, the T/C under setting [1] is 90 % of control; the T/C under setting [2] was 87 % of control; the T/C under setting [3] was 86 % of control and 90 % of control.
In the case of `COC(=O)CC(OC1CC(N)C(O)C(C)O1)c1c(O)c2c(c(O)c1CO)C(=O)c1cccc(OC)c1C2=O` (stereo not drawn), the T/C by setting is: (dose: 100.0 mg/kg/injection, schedule: Q04DX003 (ip), vehicle: water) 105 % of control; (dose: 200.0 mg/kg/injection, schedule: Q04DX003 (ip), vehicle: water) 121 % of control.
Regarding `O=[N+]([O-])c1cc2c(cc1I)C1C(C3C2C2(Cl)C(Cl)=C(Cl)C3(Cl)C2(Cl)Cl)C2(Cl)C(Cl)=C(Cl)C1(Cl)C2(Cl)Cl` (stereo not drawn), the T/C is, setting by setting: under setting [12], 108 % of control; (dose: 100.0 mg/kg/injection, schedule: Q01DX009 (ip), vehicle: saline) 106 % of control; (dose: 200.0 mg/kg/injection, schedule: Q01DX009 (ip), vehicle: saline) 106 % of control.
Turning to `CN(C)N=Nc1ccc(N(C)C)cc1`, the T/C is, setting by setting: (dose: 0.39 mg/kg/injection, schedule: Q01DX009 (ip), vehicle: Klucel (hydroxypropylcellulose) (HPC)) 121 % of control; (dose: 0.78 mg/kg/injection, schedule: Q01DX009 (ip), vehicle: Klucel (hydroxypropylcellulose) (HPC)) 113 % of control and 114 % of control; (dose: 1.56 mg/kg/injection, schedule: Q01DX009 (ip), vehicle: Klucel (hydroxypropylcellulose) (HPC)) 113 % of control and 120 % of control; (dose: 3.13 mg/kg/injection, schedule: Q01DX009 (ip), vehicle: Klucel (hydroxypropylcellulose) (HPC)) 103 % of control and 118 % of control.
As to `CCOC(=O)N(CCCl)N=O`, the T/C is, setting by setting: (dose: 0.31 mg/kg/injection, schedule: Q01DX009 (ip), vehicle: saline with Tween-80) 114 % of control; (dose: 0.62 mg/kg/injection, schedule: Q01DX009 (ip), vehicle: saline with Tween-80) 118 % of control; under setting [15], 96 % of control.
Regarding `C(=C/c1cc2ccc(C3=NCCN3)cc2o1)/c1cc2cc(C3=NCCN3)ccc2[nH]1`, the T/C (dose: 200.0 mg/kg/injection, schedule: Q04DX003 (ip), vehicle: suspension in saline) is 113 % of control.
`CNC(=O)Nc1ccncc1`: the T/C under setting [10] was 112 % of control, the T/C under setting [11] was 102 % of control and the T/C under setting [12] was 100 % of control.
Regarding `CC(C)(C)OC(=O)CN1C(=O)CCC1=O`, the T/C was 99 % of control under setting [4], 100 % of control under setting [5] and 106 % of control under setting [6].
